# Assay results reported in patent US7741354B2, “Inhibitors of glutaminyl cyclase” (Probiodrug AG, priority 2006, dated 2010).
# Molecular target: hQC (Homo sapiens, UniProt Q16769)
# Assay: Fluorometric (fluorescent) assay of hQC inhibition, IC50
# Format: biochemical
# Details: hQC inhibition; read-out: IC50
# How it was run: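 Two coupled fluorometric formats at 30° C, pH 8.0 Tris/HCl with EDTA: H-Gln-βNA at 0.2 mM read at 320/410 nm, or H-Gln-AMC at varied levels read at 380/460 nm, each started by adding QC.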
# hQC, sequence (Q16769 29-361): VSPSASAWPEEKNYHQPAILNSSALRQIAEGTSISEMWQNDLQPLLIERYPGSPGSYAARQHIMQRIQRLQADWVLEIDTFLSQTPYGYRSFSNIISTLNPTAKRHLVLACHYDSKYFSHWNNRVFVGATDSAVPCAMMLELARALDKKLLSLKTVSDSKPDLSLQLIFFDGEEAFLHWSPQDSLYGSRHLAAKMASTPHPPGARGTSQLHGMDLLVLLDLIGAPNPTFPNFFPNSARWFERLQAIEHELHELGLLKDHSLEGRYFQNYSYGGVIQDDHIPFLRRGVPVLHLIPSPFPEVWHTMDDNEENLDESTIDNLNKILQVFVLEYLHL
row,IC50,SMILES
1,6.7 µM,"c1nc2cc(NC(c3ccc(N4CCCC4)cc3)c3nnnn3CC3CCCO3)ccc2[nH]1 (stereo not shown) [compound 134, (1H-Benzoimidazol-5-yl)-{(4-pyrolidin-1-yl-phenyl)-[1-(tetrahydro-furan-2-ylmethyl)-1H-tetrazol-5-yl]-methyl}-amine]"
2,3.1 µM,"Oc1ccc(C(Nc2ccc3[nH]cnc3c2)c2nnnn2Cc2ccc(Cl)cc2)cc1 (stereo not shown) [compound 191, 4-{(1H-Benzoimidazol-5-ylamino)-[1-(4-chloro-benzyl)-1H-tetrazol-5-yl]-methyl}-phenol]"
3,2.2 µM,"c1ccc(-c2ccc(C(Nc3ccc4[nH]cnc4c3)c3nnnn3CCc3cccs3)cc2)nc1 (stereo not shown) [compound 211, (1H-Benzoimidazol-5-yl)-{(4-pyridin-2-yl-phenyl)-[1-(2-thiophen-2-yl-ethyl)-1H-tetrazol-5-yl]-methyl}-amine]"
4,1.3 µM,"O=C(Cn1nnnc1C(Nc1ccc2[nH]cnc2c1)c1cc(Br)cc(Br)c1)NCCc1c[nH]c2ccccc12 (stereo not shown) [compound 187, 2-{5-[(1H-Benzoimidazol-5-ylamino)-(3,5-dibromo-phenyl)-methyl]-tetrazol-1-yl}-N-[2-(1H-indol-3-yl)-ethyl]-acetamide]"
5,5.8 µM,"Fc1ccc2c(C(Nc3ccc4[nH]cnc4c3)c3nnnn3CC3CCCO3)c[nH]c2c1 (stereo not shown) [compound 144, (1H-Benzoimidazol-5-yl)-{(6-fluoro-1H-indol-3-yl)-[1-(tetrahydro-furan-2-ylmethyl)-1H-tetrazol-5-yl]-methyl}-amine]"
6,0.4 µM,"Clc1ccc(Cn2nnnc2C(Nc2ccc3[nH]cnc3c2)c2ccc3c(c2)OCO3)cc1 (stereo not shown) [compound 160, {Benzo[1,3]dioxol-5-yl-[1-(4-chloro-benzyl)-1H-tetrazol-5-yl]-methyl}-(1H-benzoimidazol-5-yl)-amine]"
7,2.2 µM,"O=C(Cn1nnnc1C(Nc1ccc2[nH]cnc2c1)c1ccc(Br)cc1)NCCc1c[nH]c2ccccc12 (stereo not shown) [compound 200, 2-{5-[(1H-Benzoimidazol-5-ylamino)-(4-bromo-phenyl)-methyl]-tetrazol-1-yl}-N-[2-(1H-indol-3-yl)-ethyl]-acetamide]"
8,0.4 µM,c1csc(CCn2nnnc2C(Nc2ccc3[nH]cnc3c2)c2ccc3nsnc3c2)c1 (stereo not shown) [compound 181]
9,1.3 µM,c1ccc(Cn2nnnc2C(Nc2ccc3[nH]cnc3c2)c2ccc3nsnc3c2)cc1 (stereo not shown) [compound 147]
10,3.1 µM,"COc1ccc(C(Nc2ccc3[nH]cnc3c2)c2nnnn2Cc2ccc(Cl)cc2)cc1F (stereo not shown) [compound 125, (1H-Benzoimidazol-5-yl)-[[1-(4-chloro-benzyl)-1H-tetrazol-5-yl]-(3-fluoro-4-methoxy-phenyl)-methyl]-amine]"

# Second part, the molecule before the results:
row,SMILES,IC50
1,CCOC(=O)C1CCCCC1n1nnnc1C(Nc1ccc2[nH]cnc2c1)c1ccc(SC)cc1 (stereo not shown) [compound 150],4 µM
2,"C1=CCC(C(Nc2ccc3[nH]cnc3c2)c2nnnn2CCc2cccs2)CC1 (stereo not shown) [compound 167, (1H-Benzoimidazol-5-yl)-{cyclohex-3-enyl-[1-(2-thiophen-2-yl-ethyl)-1H-tetrazol-5-yl]-methyl}-amine]",8.5 µM
3,"CCOC(=O)C1CCCCC1n1nnnc1C(Nc1ccc2[nH]cnc2c1)c1ccc(OC)c(F)c1 (stereo not shown) [compound 132, 2-{5-[(1H-Benzoimidazol-5-ylamino)-(3-fluoro-4-methoxy-phenyl)-methyl]-tetrazol-1-yl}-cyclohexanecar-boxylic acid ethyl ester]",8.5 µM
4,CCOC(=O)C1CCCCC1n1nnnc1C(Nc1ccc2[nH]cnc2c1)c1cccc(OC)c1 (stereo not shown) [compound 192],8.5 µM

# Same assay, conditions: purified compound from preparative synthesis; fluorescent assay; read-out: IC50 hQC
row,IC50,SMILES
1,0.668 µM,"Cc1ccc(O)c(C(NCCCn2ccnc2)c2nnnn2C2CC2)c1 (stereo not shown) [Compound 68, 2-[(1-Cyclopropyl-1H-tetrazol-5-yl)-(3-imidazol-1-yl-propylamino)-methyl]-4-methyl-phenol]"

# Same assay, conditions: read-out: IC50
row,IC50,SMILES
1,4.9 µM,"Cc1ccc(C(Nc2ccc3[nH]cnc3c2)c2nnnn2CC2CCCO2)cc1C (stereo not shown) [compound 83, (1H-Benzoimidazol-5-yl)-{(3,4-dimethyl-phenyl)-[1-(tetrahydro-furan-2-ylmethyl)-1H-tetrazol-5-yl]-methyl}-amine]"
2,9.4 µM,CCOC(=O)C1CCCCC1n1nnnc1C(Nc1ccc2[nH]cnc2c1)c1ccc(Cl)cc1 (stereo not shown) [compound 94]
3,5.8 µM,"CN(C)c1ccc(C(Nc2ccc3[nH]cnc3c2)c2nnnn2CC2CCCO2)cc1 (stereo not shown) [compound 108, (1H-Benzoimidazol-5-yl)-{(4-dimethylamino-phenyl)-[1-(tetrahydro-furan-2-ylmethyl)-1H-tetrazol-5-yl]-methyl}-amine]"
4,4.9 µM,"c1ccc2oc(C(Nc3ccc4[nH]cnc4c3)c3nnnn3CC3CCCO3)cc2c1 (stereo not shown) [compound 101, {Benzofuran-2-yl-[1-(tetrahydro-furan-2-ylmethyl)-1H-tetrazol-5-yl]-methyl}-(1H-benzoimidazol-5-yl)-amine]"
5,22.2 µM,"Clc1ccccc1Cn1nnnc1C(Nc1ccc2[nH]cnc2c1)c1cc2ccccc2o1 (stereo not shown) [compound 90, {Benzofuran-2-yl-[1-(2-chloro-benzyl)-1H-tetrazol-5-yl]-methyl}-(1H-benzoimidazol-5-yl)-amine]"
6,5.8 µM,"CCCC(Nc1ccc2[nH]cnc2c1)c1nnnn1Cc1ccccc1 (stereo not shown) [compound 110, (1H-Benzoimidazol-5-yl)-[1-(1-benzyl-1H-tetrazol-5-yl)-butyl]-amine]"
7,2.2 µM,"CCCOc1cccc(C(Nc2ccc3[nH]cnc3c2)c2nnnn2Cc2cccnc2)c1 (stereo not shown) [compound 74, (1H-Benzoimidazol-5-yl)-[(3-propoxy-phenyl)-(1-pyridin-3-ylmethyl-1H-tetrazol-5-yl)-methyl]-amine]"

# Continued, molecule first:
row,SMILES,IC50
1,"COC(=O)Cn1nnnc1C(NCCCn1ccnc1)c1ccc(Cl)c(Cl)c1 (stereo not shown) [compound 50, {5-[(3,4-Dichloro-phenyl)-(3-imidazol-1-yl-propylamino)-methyl]-tetrazol-1-yl}-acetic methyl ester]",4 µM
2,Clc1ccc(C(NCCCn2ccnc2)c2nnnn2C[C@@H]2CCCO2)cc1Cl (stereo partly shown) [compound 10],4 µM
3,"COCCn1nnnc1C(NCCCn1ccnc1)c1cc(C)ccc1O (stereo not shown) [compound 39, 2-{(3-Imidazol-1-yl-propylamino)-[1-(2-methoxy-ethyl)-1H-tetrazol-5-yl]-methyl}-4-methyl-phenol]",8.5 µM
4,"C1=CO[C@H](C(NCCCn2ccnc2)c2nnnn2C2CC2)CC1 (stereo partly drawn) [compound 71, [(S)-(1-Cyclopropyl-1H-tetrazol-5-yl)-3,4-dihydro-2H-pyran-2-yl-methyl]-(3-imidazol-1-yl-propyl)-amine]",9.4 µM
5,"CCCCn1nnnc1C(NCCCn1ccnc1)c1ccc(Cl)c(Cl)c1 (stereo not shown) [compound 18, [(1-Butyl-1H-tetrazol-5-yl)-(3,4-dichloro-phenyl)-methyl]-(3-imidazol-1-yl-propyl)-amine]",7.6 µM
6,"C=CCn1nnnc1C(NCCCn1ccnc1)c1cc(C)ccc1O (stereo not shown) [compound 44, 2-[(1-Allyl-1H-tetrazol-5-yl)-(3-imidazol-1-yl-propylamino)-methyl]-4-methyl-phenol]",4.9 µM
7,"Cn1nnnc1C(NCCCn1ccnc1)c1ccc2[nH]ccc2c1 (stereo not shown) [compound 30, (3-Imidazol-1-yl-propyl)-[(1H-indol-5-yl)-(1-methyl-1H-tetrazol-5-yl)-methyl]-amine]",4 µM
8,"Cc1ccc(O)c(C(NCCCn2ccnc2)c2nnnn2C2CC2)c1 (stereo not shown) [Compound 68, 2-[(1-Cyclopropyl-1H-tetrazol-5-yl)-(3-imidazol-1-yl-propylamino)-methyl]-4-methyl-phenol]",0.4 µM
9,"CC(C)(C)Cn1nnnc1C(NCCCn1ccnc1)c1ccc2ccccc2n1 (stereo not shown) [compound 66, {[1-(2,2-Dimethyl-propyl)-1H-tetrazol-5-yl]-quinolin-2-yl-methyl}-(3-imidazol-1-yl-propyl)-amine]",3.1 µM
